Data: US8420819B2, “Process for optimizing the particle size of an active pharmaceutical ingredient by crystallization” (Boehringer Ingelheim International GmbH, priority 2009, dated 2013)

Columns and labels:
[1] = Powder properties (flowability, bulk density) of crystallized particles; type: physicochemical; conditions: MEK/heptane process compared to particles produced from other solvent systems
[2] = Particle size of co-crystal batches, measured by Sympatec laser light diffraction; type: physicochemical; conditions: for Particle Size D10: scale-up batches from MEK/heptane crystallization, Sympatec laser light diffraction

SMILES: CCS(=O)(=O)c1cc2cc(C[C@](O)(CC(C)(C)c3ccc(F)cc3C(N)=O)C(F)(F)F)[nH]c2cn1.O=P(O)(O)O [2-[(3R)-3-(5-ethanesulfonyl-1H-pyrrolo[2,3-c]pyridin-2-ylmethyl)-4,4,4-trifluoro-3-hydroxy-1,1-dimethylbutyl]-5-fluorobenzamide phosphoric acid co-crystal]
- powder properties (flowability, bulk density) [1]: excellent powder properties
- D90 ([2]; MEK/heptane, initial concentration approximately 0.11-0.14 g/mL, seeded, high supersaturation): < 10 μm
- D90 ([2]; approximately 1.0 wt % water in the solution (between about 0.7% and 1.2%) (FIG. 2)): 25-30 μm
- particle size of the product, D90 ([2]; crystallization as part of the synthesis, from acetic acid or anisole solvate, 50.0 g, KF <0.2 wt %): about 7 μm
- D90 ([2]; crystallization with 0.1 wt % water (FIG. 1)): 6 μm
- D90 ([2]; crystallization with 1.1 wt % water (FIG. 2)): 26 μm
- D90 ([2]; crystallization with 2.0 wt % water (FIG. 3)): 50 μm
- D90 ([2]; crystallization with <0.5 wt % water in the solution (FIG. 1)): 5-10 μm
- Particle Size D10 ([2]; listed as Kilo lab batch, 1.8 kg, from acetic acid solvate): 1.19 μm
- Particle Size D10 ([2]; listed as Lab batch 1 from acetic acid solvate): 1.29 μm
- Particle Size D10 ([2]; listed as Lab batch 2 from acetic acid solvate): 1.28 μm
- Particle Size D10 ([2]; listed as Lab batch 3 from acetic acid solvate): 1.54 μm
- Particle Size D10 ([2]; listed as Lab batch from new synthesis from acetic acid solvate): 1.17 μm
- Particle Size D10 ([2]; listed as Lab batch, from anisole solvate): 1.31 μm
- Particle Size D10 ([2]; listed as Pilot plant batch A, 11 kg, from anisole solvate): 1.61 μm
- Particle Size D10 ([2]; listed as Pilot plant batch B, 22 kg, from anisole solvate): 1.67 μm
- Particle Size D10 ([2]; listed as Pilot plant batch, 9 kg, from acetic acid solvate): 1.26 μm
- particle size of the product, D90 ([2]; standalone re-crystallization process, 50.0 g co-crystal, KF ≦0.2 wt %): about 7 μm
